Laboratory results: patent US10383336B2, “Solutions employing herbicides and buffered amine oxides to kill weeds and related methods” (priority 2015, dated 2019)

How the values were obtained:
Grass (mixed types) = experiment: Field trial of formulation components, kill rate 1 year after application (TABLE 2, Jun. 14, 2005, near Warren Pa.); type: in vivo; settings: no herbicide; single component at % weight: Ethylene Glycol 0.07, 5 Mol Borax 0.044, Boric Acid 0.037, Barlox 12 0.305
Description: (§1) On Jun. 14, 2005, further trials were conducted near Warren Pa., USA to evaluate the contribution of certain formulation components to herbicide performance from the Jun. 2, 2004 Buffered Amine Oxide system. The same field trial methods were used. The control was distilled water.
(§2) The two herbicides which were tested were 2,4-D and Glyphosate. They were used in concentrations of 50:1 and 200:1. The vegetations tested were raspberry and grass. The components of the various elements employed in the buffered amine oxide formula are expressed in weight percent of the total buffered amine oxide formula. […] The first three components were tested at 200:1 strength with the Ethylene Glycol used alone, the Ethylene Glycol used in combination with 5 Mol Borax and Ethylene Glycol, 5 Mol Borax and Boric Acid used in combination. None of these killed the weeds.
(§3) Where a “0” appears in a block in TABLE 2, this means there were no kills. Where a block is blank, this means that no measurement was taken.

Raspberry = experiment: as above; type: in vivo; settings: no herbicide; single component at % weight: Ethylene Glycol 0.07, 5 Mol Borax 0.044, Boric Acid 0.037, Barlox 12 0.305
Description: as §1, §2, §3

Compound	Kill Rate % 1 Year After Application, Grass (Grass (mixed types))	Kill Rate % 1 Year After Application, Raspberry (Raspberry)
OCCO [Ethylene Glycol]	0%	0%
OB(O)O [Boric Acid]	0%	0%
O.O.O.O.O.[Na+].[Na+].[O-]B1OB2OB([O-])OB(O1)O2 [5 Mol Borax]	0%	0%
